{"source": "paper PMC10176470", "about": "“Engaging a Non-catalytic Cysteine Residue Drives Potent and Selective Inhibition of Caspase-6” (Journal of the American Chemical Society, 2023)", "assay_in_all_cases": "SILAC proteomics / in-gel fluorescence, competition of probe 13-t labeling by 3a", "key": {"[1]": {"target": "proteins of HEK293T cells transiently overexpressing caspase-6 (Homo sapiens, UniProt P05388)", "settings": "Comp; protein RPLP0 P05388"}, "[2]": {"target": "proteins of HEK293T cells transiently overexpressing caspase-6 (Homo sapiens, UniProt Q13151)", "settings": "Comp; protein HNRNPA0 Q13151"}, "[3]": {"target": "proteins of HEK293T cells transiently overexpressing caspase-6 (Homo sapiens, UniProt P39023)", "settings": "Comp; protein RPL3 P39023"}, "[4]": {"target": "proteins of HEK293T cells transiently overexpressing caspase-6 (Homo sapiens, UniProt P35998)", "settings": "Comp; protein PSMC2 P35998"}, "[5]": {"target": "proteins of HEK293T cells transiently overexpressing caspase-6 (Homo sapiens, UniProt Q9P258)", "settings": "Comp; protein RCC2 Q9P258"}, "[6]": {"target": "T1, proteins of HEK293T cells transiently overexpressing caspase-6 (Homo sapiens, UniProt O00567)", "T1 sequence (O00567 1-594)": "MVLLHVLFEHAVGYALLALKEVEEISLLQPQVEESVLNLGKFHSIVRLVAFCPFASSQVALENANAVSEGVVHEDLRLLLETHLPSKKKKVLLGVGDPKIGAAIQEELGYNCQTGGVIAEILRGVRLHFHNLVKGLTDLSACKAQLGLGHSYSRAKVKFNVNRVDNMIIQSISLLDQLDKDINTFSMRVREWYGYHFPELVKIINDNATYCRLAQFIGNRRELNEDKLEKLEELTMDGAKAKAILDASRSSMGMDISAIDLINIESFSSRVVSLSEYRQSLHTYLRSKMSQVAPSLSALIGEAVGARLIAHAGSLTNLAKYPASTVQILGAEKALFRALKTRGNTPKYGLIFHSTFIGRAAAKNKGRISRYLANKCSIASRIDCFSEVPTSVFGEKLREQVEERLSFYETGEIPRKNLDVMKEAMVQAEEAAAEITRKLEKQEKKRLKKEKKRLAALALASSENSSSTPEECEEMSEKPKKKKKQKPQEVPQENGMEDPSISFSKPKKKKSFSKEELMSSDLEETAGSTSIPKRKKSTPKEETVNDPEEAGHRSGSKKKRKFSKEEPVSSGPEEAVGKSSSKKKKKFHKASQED"}, "[7]": {"target": "proteins of HEK293T cells transiently overexpressing caspase-6 (Homo sapiens, UniProt P60900)", "settings": "Comp; protein PSMA6 P60900"}, "[8]": {"target": "proteins of HEK293T cells transiently overexpressing caspase-6 (Homo sapiens, UniProt P06744)"}, "[9]": {"target": "proteins of HEK293T cells transiently overexpressing caspase-6 (Homo sapiens, UniProt Q9H307)"}, "[10]": {"target": "proteins of HEK293T cells transiently overexpressing caspase-6 (Homo sapiens, UniProt O00571)"}, "[11]": {"target": "proteins of HEK293T cells transiently overexpressing caspase-6 (Homo sapiens, UniProt P36405)"}, "[12]": {"target": "T2, proteins of HEK293T cells transiently overexpressing caspase-6 (Homo sapiens, UniProt P22234)", "T2 sequence (P22234 1-425)": "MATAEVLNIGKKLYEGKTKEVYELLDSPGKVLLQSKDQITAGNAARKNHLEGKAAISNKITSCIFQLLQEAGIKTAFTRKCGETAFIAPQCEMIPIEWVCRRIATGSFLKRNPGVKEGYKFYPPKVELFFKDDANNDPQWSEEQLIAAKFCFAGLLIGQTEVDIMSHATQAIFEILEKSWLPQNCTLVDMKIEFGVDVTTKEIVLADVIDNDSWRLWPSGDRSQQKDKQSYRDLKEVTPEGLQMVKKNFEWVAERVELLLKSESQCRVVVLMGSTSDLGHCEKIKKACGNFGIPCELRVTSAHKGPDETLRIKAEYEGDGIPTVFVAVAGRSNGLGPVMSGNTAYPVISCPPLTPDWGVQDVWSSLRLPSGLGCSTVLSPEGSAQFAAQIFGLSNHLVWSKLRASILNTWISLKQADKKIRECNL", "settings": "Comp; protein PAICS P22234"}, "[13]": {"settings": "protein NOP56 (O00567), Exp Comp, analysis C6, p 0.1250, 4 peptides"}, "[14]": {"settings": "protein GPI (P06744), Exp Comp, analysis C6, p 0.0078, 8 peptides"}, "[15]": {"settings": "protein PNN (Q9H307), Exp Comp, analysis C6, p 0.5000, 2 peptides"}, "[16]": {"settings": "protein DDX3X (O00571), Exp Comp, analysis C6, p 0.1250, 4 peptides"}, "[17]": {"settings": "protein ARL3 (P36405), Exp Comp, analysis C6, p 0.1250, 5 peptides"}}, "data": [{"smiles": "C=CS(=O)(=O)N1C[C@H](C(=O)Nc2ccc(OC(F)(F)F)cc2)C[C@@H](c2ccccc2)C1", "note": "[3a]", "values": [{"measurement": "enrich.exp.med", "setting": "[1]", "result": 0.8946}, {"measurement": "enrich.exp.med", "setting": "[2]", "result": 0.7909}, {"measurement": "enrich.exp.med", "setting": "[3]", "result": 0.8762}, {"measurement": "enrich.exp.med", "setting": "[4]", "result": 0.924}, {"measurement": "enrich.exp.med", "setting": "[5]", "result": 0.5769}, {"measurement": "enrich.exp.med", "setting": "[6]; Comp, protein NOP56 O00567", "result": 1.117}, {"measurement": "enrich.exp.med.lin", "setting": "[6]; [13]", "result": 2.169}, {"measurement": "enrich.exp.med.log2", "setting": "[6]; [13]", "result": 1.117}, {"measurement": "enrich.exp.med", "setting": "[7]", "result": 0.7694}, {"measurement": "enrich.exp.med", "setting": "[8]; Comp, protein GPI P06744", "result": 1.157}, {"measurement": "enrich.exp.med.lin", "setting": "[8]; [14]", "result": 2.229}, {"measurement": "enrich.exp.med.log2", "setting": "[8]; [14]", "result": 1.157}, {"measurement": "enrich.exp.med", "setting": "[9]; Comp, protein PNN Q9H307", "result": 1.018}, {"measurement": "enrich.exp.med.lin", "setting": "[9]; [15]", "result": 2.025}, {"measurement": "enrich.exp.med.log2", "setting": "[9]; [15]", "result": 1.018}, {"measurement": "enrich.exp.med", "setting": "[10]; Comp, protein DDX3X O00571", "result": 1.089}, {"measurement": "enrich.exp.med.lin", "setting": "[10]; [16]", "result": 2.128}, {"measurement": "enrich.exp.med.log2", "setting": "[10]; [16]", "result": 1.089}, {"measurement": "enrich.exp.med", "setting": "[11]; Comp, protein ARL3 P36405", "result": 1.0898}, {"measurement": "enrich.exp.med.lin", "setting": "[11]; [17]", "result": 2.128}, {"measurement": "enrich.exp.med.log2", "setting": "[11]; [17]", "result": 1.0898}, {"measurement": "enrich.exp.med", "setting": "[12]", "result": 0.7148}]}]}
